# In a melting point compilation (Tetko et al.; mined from patent text by program, amines drawn as free bases though some values may be those of a salt):
row,Compound,melting point
1,CN(C)Cc1nc(N)nc(N)c1-c1ccc(Cl)cc1Cl,170 to 172 °C
2,COc1c(Cl)cc(N=C=S)cc1C(=O)Nc1c(C)cccc1C,191 to 192 °C
3,Cc1ncsc1C(O)c1ccoc1 (stereo not given),44 to 46 °C
4,CCCn1nc(C(C)C)c(C(=O)OCc2ccccc2C(=O)c2ccccc2)c1Cc1ccc(-c2ccccc2S(N)(=O)=O)c(F)c1,49 to 51 °C
5,CCC(=S)NC[C@H]1CN(c2ccc(N3CCN(C(=O)CCC(=O)c4ccc(CN(C)C)cc4)CC3)c(F)c2)C(=O)O1,169 °C
6,O=C(CCN1CCC(N2Cc3ccccc3C2=O)CC1)c1ccccc1,87 to 90 °C
7,CN1CCC2(CC1)NC(=O)N(c1ccc(C#N)c(C(F)(F)F)c1)C2=N,199 to 200 °C
8,Cn1cc2c(Cl)cc(-c3ccccc3)nc2n1,177 to 179 °C
9,O=C(NCC12CC3CC(CC(C3)C1)C2)c1cc(-c2cccnc2N2CCC[C@H]2C(=O)O)ccc1Cl,121 to 125 °C
10,COc1ccc(-c2nccc(C(N)=O)c2N)cc1,179 to 181 °C
11,CC1(C)NC(=O)N(Cc2ccccc2)C1=O,101 to 104 °C
12,[N-]=[N+]=NC1CCc2ccccc2C1NC(=O)OCc1ccccc1 (stereo not given),104 °C
13,NC(=O)c1ccc(CCN2CC=C(c3c[nH]c(-c4ccc(F)cc4)c3-c3ccncc3)CC2)cc1,202 to 204 °C
14,C=C(CC(NC(=O)OC(C)(C)C)C(=O)OCC)CC(NC=O)(C(=O)OCC)C(=O)OCC (stereo not given),68 °C
15,CCOC(=O)C(=NNc1ccc([N+](=O)[O-])cc1)C(C)=O,128 °C
16,CCc1ccc(C(=O)NCc2ccc3c(c2)C(=O)N([C@@]2(C)CCC(=O)NC2=O)C3=O)cc1,160 to 162 °C
17,COc1ccc2c(c1)C[C@@H](C(N)=O)CC2,159 to 161 °C
18,CN(C)CCC(c1ccncc1)S(=O)(=O)c1ccc(Cl)cc1 (stereo not given),91 to 92 °C
19,CCCc1nc2c(N)nc3cc(-c4ccccc4)ccc3c2n1CCCONC(=O)C(C)C,169 to 171 °C
20,CC1CC(N)=NN1c1cncc(Cl)n1 (stereo not given),147 to 148 °C
21,Nc1nc2ccccc2c2c1ncn2CCOCCCc1ncccn1,126 to 127 °C
22,COc1cc(CC(C)=O)ccc1OCC(O)CN1CCN(c2ccccc2C)CC1 (stereo not given),128 °C
23,CS(=O)CC(=O)c1cc(-c2ccccc2)on1 (stereo not given),164 to 166 °C
24,COCCOc1ccc(CCCC2OCCO2)c(Oc2ncc(C(F)(F)F)cc2Cl)c1,92 to 92.5 °C
25,CC(C)CCOc1ccc(-n2cc(C(=O)O)cn2)cc1C#N,210 to 211 °C

row,Compound,melting point
1,COc1ccc(C(=O)Nc2nc3ccc(N4CCN(C)CC4)cc3c(NCc3ccccc3)c2C#N)cc1,173 °C
2,CCOC(=O)CCc1nc2cccnc2n(-c2cccc(NC(=O)Nc3ccccc3OC)c2)c1=O,175 °C
3,CC(C)(C)NS(=O)(=O)c1cccc2c1CSC2=O,121 to 124 °C
4,O=C1c2ccccc2S(=O)CC1(CO)CO (stereo not given),108 to 111 °C
5,COc1ccc(CN2C(=O)[C@@H](NC(=O)Cc3ccccc3)[C@H]2CNC(C)=O)c(OC)c1 (relative stereo),205 to 207 °C
6,CNC1(c2ccccc2Cl)C(=O)N(S(=O)(=O)c2ccc(NC(=O)c3cccnc3)cc2)c2ccc(Cl)cc21 (stereo not given),228 °C
7,CN1Cc2cncn2-c2cccc(Cl)c2C1=O,200 to 201 °C
8,O=C(c1ccccc1)N(c1ccccc1)c1ccc(O)cc1,257 to 260 °C
9,C=CC(=O)Oc1ccc(-c2cccc(OC(=O)C=C)c2)cc1,63.6 °C
10,CSC(C(=O)c1cc(-c2ccccc2)on1)N(C)C (stereo not given),98 to 99.5 °C
11,CC(C)Nc1ccc(NC(=O)C2(C)CC2)cc1C(F)(F)F,100 to 102 °C
12,CC(=O)N(C)Nc1nnc(-c2ccccc2C)s1,106 to 108 °C
13,COc1ccc2c(c1)OC(C#N)=CO2,92 °C
14,CCC(=CC(N)C(=O)O)CP(=O)(O)O (stereo not given),176 °C
15,CCOC(=O)c1[nH]c(C)c(C)c1OCC1CO1 (stereo not given),70 to 71 °C
16,CC(CC(=O)Nc1cc(Cc2n[nH]c(=O)c3ccccc23)ccc1F)C(=O)O (stereo not given),140 to 144 °C
17,CC(C)(C)c1cc(SCCSCC(=O)O)cc(C(C)(C)C)c1O,86 °C
18,N#Cc1ccccc1OCC1CN=C(N)O1 (stereo not given),146 °C
19,Cc1cccc(-c2cc(Cl)c3ccccc3n2)c1,75 to 77 °C
20,Cc1n[nH]c2ccc(-c3nn(C(C)c4oc5ccccc5c(=O)c4-c4cccc(F)c4)c4ncnc(N)c34)cc12 (stereo not given),254 to 256 °C
21,CN1Cc2c(C#CC(C)(C)O)ncn2-c2ccc(F)cc2C1=O,163 to 164 °C
22,COC(=O)c1ccc([N+](=O)[O-])cc1S(=O)(=O)Cl,86 to 88 °C
23,Cc1ccc(S(=O)(=O)N2CCCC2c2cccc(F)c2)cc1 (racemic),116 °C
24,Oc1ccc2c(c1)COc1c-2cc2ccc(O)cc2c1-c1cc(Cl)cc(Cl)c1,252 to 255 °C
25,Cc1cc(C)c2nc(C)n(Cc3ccc(NCC4CCN(C5CCOCC5)CC4)cc3)c2n1,148 to 150 °C

row,Compound,melting point
1,O=C(O)Cc1cccc(Oc2ccc(Cl)cc2)c1[N+](=O)[O-],167 to 170 °C
2,Cc1n[nH]c(-c2ccncc2)c1-c1ccccc1,164 to 165 °C
3,O=C(NC1=NN(c2ccc(Cl)c(Cl)c2)CC1)c1ccc(Cl)cc1,177 to 178 °C
4,Cc1sc([Si](C)(C)C)cc1C1=C(c2cc([Si](C)(C)C)sc2C)C(F)(F)C(F)(F)C1(F)F,91.4 °C
5,CCc1ccc(-c2ccc(Cl)cc2)cc1,103 °C
6,CCOC(=O)COc1ccc(C2OCCCO2)cc1NC(=O)c1ccc(OCCCCc2ccccc2)cc1,73 °C
7,CC(C)(C)c1cc(CCc2ccccc2NC(=O)NCc2ccccn2)cc(C(C)(C)C)c1O,189 to 190 °C
8,Cc1nnc(-c2ccc3occ(-c4ccc(OCS(C)(=O)=O)cc4)c3c2)o1,198 to 199 °C
9,CCOC(=O)c1cnc2c3ccccc3ccn2c1=O,183 to 184 °C
10,CCCN(CCC)S(=O)(=O)c1cccc(C(=O)Nc2ccc(Br)cc2)c1,160 to 162 °C
11,COc1ccc(-c2cc(C(=O)NCc3ccccn3)c(=O)n(CC3CC3)n2)cc1,98.6 to 99.3 °C
12,CCCCc1nn(C(CC)c2ccccc2)c(=O)n1Cc1ccc(-c2ccccc2-c2nnn[nH]2)cc1 (stereo not given),72 to 75 °C
13,CCCOc1ccc(Br)c(C(C)=O)c1,50 to 52 °C
14,CCN1c2ccccc2NC(=O)c2cccnc21,210 to 220 °C
15,CCOC(=O)NN=C(c1ccc(Cl)cc1)c1ccc(CSC)cc1,105 to 109 °C
16,CC(=O)NC[C@H]1CN(c2ccc(N3CCS(=O)(=O)CC3)c(F)c2)C(=O)O1,202 to 203 °C
17,COc1ccc(NC(=O)c2ccccc2OC)cc1,49.5 to 51.2 °C
18,CCCn1ncc2c(=O)[nH]c(-c3ccccc3OCC)nc21,154 to 155 °C
19,NC1=NC(c2ccc(OC(F)(F)F)cc2)(c2cccc(-c3cccnc3F)c2)C2=NOCCN12 (stereo not given),102 to 117 °C
20,Cc1nc2c(N)nc3ccccc3c2n1CCS(C)(=O)=O,242 to 245 °C
21,CNC(=O)OCc1c(COC(=O)NC)c2n(c1C)-c1ccccc1C2,86 to 88 °C
22,COc1cccc(CC(=O)O)c1OCCCc1cn(-c2ccc(C(C)=O)cn2)nc1C(C)C,148 to 149 °C
23,NC(=O)Cc1ccc2c(c1)CCc1ccccc1O2,205 to 206 °C
24,CCN(CC)C(=O)c1ccc(C(c2ccccc2)C2CCNCC2)cc1 (stereo not given),160 to 162 °C
25,Cc1cc(=O)n(C)c2[nH]n(-c3ccccc3)c(=O)c12,179 to 181 °C

row,Compound,melting point
1,CC(=O)Nc1ccc(Sc2cccn3nc(Nc4ccc(C5CCN(C(=O)OC(C)(C)C)CC5)cc4)nc23)cc1,226 to 228 °C
2,COC(=O)CCCC(=O)c1ccccc1C=CBr,52 to 55 °C
3,Fc1ccc(-c2c3cccc(C(F)(F)F)c3nn2Cc2ccc(F)cc2Cl)cc1,78 °C
4,CN(Cc1ccc[nH]1)C1CCCN(C(=O)c2ccc(Nc3nccc(Nc4ccc(F)cc4)n3)cc2)C1 (stereo not given),148 to 151 °C
5,O=C(O)C=NNc1ccc(C(F)(F)F)cc1,125 °C
6,CC(C)CCN1C(=O)C(NC(=O)Nc2cccc(N(C)C)c2)C(=O)N(CC23CC4CC(CC(C4)C2)C3)c2ccccc21 (stereo not given),226 to 227 °C
7,Cn1c2c(c3cc(F)ccc31)C(=O)NCC2,200 to 202 °C
8,CCCC(=O)C(=CNc1ccc(OC(=O)c2ccccc2)cc1OC)C(=O)OCC,85 to 87 °C
9,Nc1sc2c(c1C(=O)c1ccc(Cl)cc1)CCN(C(=O)OCc1ccccc1)C2,60 to 62 °C
10,COC(=O)c1ccc(COc2cc(F)ccc2N)c(F)c1,92 to 95 °C
11,CCN(CC)CC(C)N1c2ccccc2Sc2ccc(C(=S)NCCC(C)C)cc21 (racemic),80 °C
12,COc1ccc(C=CC(=O)c2cccc([N+](=O)[O-])c2)c(OC)c1,88.1 to 88.7 °C
13,CC(C)Oc1ccc(CN/C=C2\C(=O)NC(=O)c3ccc(Br)cc32)cc1O,212 to 213 °C
14,CCOC(=O)C(=CNc1ccc(OC)c(C)n1)C(=O)OCC,109 to 110 °C
15,CON=C(c1ccccc1O)n1ccnc1,104 °C
16,COc1ccc(Cc2nc3c(N)nc4ccccc4c3n2CCCCNS(C)(=O)=O)cc1,78.1 to 79.5 °C
17,COc1cccc(CCNC(=O)N(C)O)c1OC,83 to 85 °C
18,O=C1Nc2ccccc2SC1c1ccc(F)cc1 (stereo not given),216 to 219 °C
19,COc1ccc2c3ccnc(C)c3n(Cc3ccccc3)c2c1,131 to 133 °C
20,CCc1nc2ccc(OC(F)(F)F)cc2[nH]1,135 to 137 °C
21,O=C(O)c1cccc(-n2cc(-c3ccccc3F)cn2)c1,225 to 226 °C
22,Cc1cc(F)ccc1-c1ccc(S(=O)(=O)N2c3ccccc3CC2C(=O)NCCOc2ccc(C(=O)O)c(F)c2)cc1 (stereo not given),109 to 118 °C
23,CC(=O)NC[C@H]1CN(c2cc(F)c(N3CCC(n4ncn(C)c4=S)CC3)c(F)c2)C(=O)O1,168 to 170 °C
24,CC(=O)c1cc2c(c(C(=O)O)c1)NCCC2,229 °C
25,CC[C@@H]1O[C@](C#CC2CC2)(C(F)(F)F)c2cc(F)ccc2NC1=O (relative stereo),186 °C
